Reference: ChEMBL document CHEMBL4334544, “BRM Targeting Compounds for the Potential Treatment of Cancer” (ACS Med Chem Lett, 2020)

Assays:
[1] = molecular target: T1, Protein cereblon/SWI/SNF-related matrix-associated actin-dependent regulator of chromatin subfamily A member 2 (Homo sapiens, UniProt P51531+Q96SW2); test: Protac activity at E3 ubiquitin ligase/BRM in human SW1573 cells assessed as E3 ubiquitin ligase-mediated BRM degradation incubated for 18 to 20 hrs by Western blot analysis; format: cell-based
T1 sequence (P51531 whole entry): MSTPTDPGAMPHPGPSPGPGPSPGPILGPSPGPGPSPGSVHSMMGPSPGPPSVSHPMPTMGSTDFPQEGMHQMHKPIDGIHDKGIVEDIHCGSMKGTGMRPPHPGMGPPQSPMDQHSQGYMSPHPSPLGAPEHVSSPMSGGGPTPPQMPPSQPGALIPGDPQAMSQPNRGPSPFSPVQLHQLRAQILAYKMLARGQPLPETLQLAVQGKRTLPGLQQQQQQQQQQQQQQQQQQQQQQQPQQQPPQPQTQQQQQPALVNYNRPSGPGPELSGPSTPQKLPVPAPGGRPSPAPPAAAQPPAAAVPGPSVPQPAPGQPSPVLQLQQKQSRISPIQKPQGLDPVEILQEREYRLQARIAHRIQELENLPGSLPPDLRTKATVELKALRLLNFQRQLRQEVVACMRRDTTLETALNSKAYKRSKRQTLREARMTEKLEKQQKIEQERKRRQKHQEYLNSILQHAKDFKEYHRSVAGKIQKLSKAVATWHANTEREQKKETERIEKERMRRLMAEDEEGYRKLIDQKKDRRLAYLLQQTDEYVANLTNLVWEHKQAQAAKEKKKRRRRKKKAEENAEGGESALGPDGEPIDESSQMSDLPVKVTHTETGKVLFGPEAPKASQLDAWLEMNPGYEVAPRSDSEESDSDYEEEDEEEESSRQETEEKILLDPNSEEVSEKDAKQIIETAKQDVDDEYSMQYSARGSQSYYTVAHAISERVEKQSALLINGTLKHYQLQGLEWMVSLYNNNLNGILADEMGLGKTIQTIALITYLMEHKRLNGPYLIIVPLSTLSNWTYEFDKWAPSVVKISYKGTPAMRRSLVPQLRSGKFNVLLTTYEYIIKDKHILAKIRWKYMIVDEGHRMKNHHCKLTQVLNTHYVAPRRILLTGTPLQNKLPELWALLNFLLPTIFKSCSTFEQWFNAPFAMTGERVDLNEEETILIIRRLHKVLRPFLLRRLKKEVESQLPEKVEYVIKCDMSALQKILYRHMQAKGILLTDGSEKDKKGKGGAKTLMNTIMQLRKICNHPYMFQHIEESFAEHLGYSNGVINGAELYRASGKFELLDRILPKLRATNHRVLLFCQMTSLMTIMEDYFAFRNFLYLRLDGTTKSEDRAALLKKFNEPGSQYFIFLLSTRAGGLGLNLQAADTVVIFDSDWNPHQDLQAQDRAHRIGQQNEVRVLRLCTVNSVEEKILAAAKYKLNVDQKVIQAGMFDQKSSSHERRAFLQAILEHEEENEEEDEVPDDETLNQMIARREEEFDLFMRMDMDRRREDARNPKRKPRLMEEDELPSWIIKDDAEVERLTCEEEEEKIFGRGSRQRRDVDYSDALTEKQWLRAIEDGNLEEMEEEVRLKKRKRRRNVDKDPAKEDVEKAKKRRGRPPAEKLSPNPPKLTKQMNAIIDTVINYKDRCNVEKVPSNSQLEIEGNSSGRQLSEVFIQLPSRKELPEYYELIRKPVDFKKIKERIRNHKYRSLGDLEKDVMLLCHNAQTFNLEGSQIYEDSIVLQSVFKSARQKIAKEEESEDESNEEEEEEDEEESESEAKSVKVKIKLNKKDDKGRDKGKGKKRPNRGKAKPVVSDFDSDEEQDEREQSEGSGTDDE
T1 sequence (Q96SW2 whole entry): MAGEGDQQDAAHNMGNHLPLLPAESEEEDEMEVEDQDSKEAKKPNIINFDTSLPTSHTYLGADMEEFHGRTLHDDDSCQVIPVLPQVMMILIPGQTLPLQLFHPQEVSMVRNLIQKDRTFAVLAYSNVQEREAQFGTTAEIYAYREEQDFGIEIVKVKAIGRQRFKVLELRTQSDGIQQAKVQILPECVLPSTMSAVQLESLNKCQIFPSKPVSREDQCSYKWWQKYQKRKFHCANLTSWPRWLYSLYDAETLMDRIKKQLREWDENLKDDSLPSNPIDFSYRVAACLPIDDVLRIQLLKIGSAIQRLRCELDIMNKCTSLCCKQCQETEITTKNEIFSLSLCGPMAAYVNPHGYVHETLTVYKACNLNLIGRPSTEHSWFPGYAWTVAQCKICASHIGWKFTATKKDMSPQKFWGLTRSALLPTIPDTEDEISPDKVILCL

[2] = molecular target: T1, Protein cereblon/SWI/SNF-related matrix-associated actin-dependent regulator of chromatin subfamily A member 2; test: Protac activity at E3 ubiquitin ligase/BRM in human SW1573 cells assessed as E3 ubiquitin ligase-mediated BRM degradation at 0.3 to 10 uM incubated for 18 to 20 hrs by Western blot analysis relative to control; format: cell-based
[3] = molecular target: T2, von Hippel-Lindau disease tumor suppressor/SWI/SNF-related matrix-associated actin-dependent regulator of chromatin subfamily A member 4 (Homo sapiens, UniProt P51532+P40337); test: Protac activity at E3 ubiquitin ligase/BRG1 (unknown origin) assessed as E3 ubiquitin ligase mediated BRG1 degradation
Target sequence in this assay (P51532 whole entry): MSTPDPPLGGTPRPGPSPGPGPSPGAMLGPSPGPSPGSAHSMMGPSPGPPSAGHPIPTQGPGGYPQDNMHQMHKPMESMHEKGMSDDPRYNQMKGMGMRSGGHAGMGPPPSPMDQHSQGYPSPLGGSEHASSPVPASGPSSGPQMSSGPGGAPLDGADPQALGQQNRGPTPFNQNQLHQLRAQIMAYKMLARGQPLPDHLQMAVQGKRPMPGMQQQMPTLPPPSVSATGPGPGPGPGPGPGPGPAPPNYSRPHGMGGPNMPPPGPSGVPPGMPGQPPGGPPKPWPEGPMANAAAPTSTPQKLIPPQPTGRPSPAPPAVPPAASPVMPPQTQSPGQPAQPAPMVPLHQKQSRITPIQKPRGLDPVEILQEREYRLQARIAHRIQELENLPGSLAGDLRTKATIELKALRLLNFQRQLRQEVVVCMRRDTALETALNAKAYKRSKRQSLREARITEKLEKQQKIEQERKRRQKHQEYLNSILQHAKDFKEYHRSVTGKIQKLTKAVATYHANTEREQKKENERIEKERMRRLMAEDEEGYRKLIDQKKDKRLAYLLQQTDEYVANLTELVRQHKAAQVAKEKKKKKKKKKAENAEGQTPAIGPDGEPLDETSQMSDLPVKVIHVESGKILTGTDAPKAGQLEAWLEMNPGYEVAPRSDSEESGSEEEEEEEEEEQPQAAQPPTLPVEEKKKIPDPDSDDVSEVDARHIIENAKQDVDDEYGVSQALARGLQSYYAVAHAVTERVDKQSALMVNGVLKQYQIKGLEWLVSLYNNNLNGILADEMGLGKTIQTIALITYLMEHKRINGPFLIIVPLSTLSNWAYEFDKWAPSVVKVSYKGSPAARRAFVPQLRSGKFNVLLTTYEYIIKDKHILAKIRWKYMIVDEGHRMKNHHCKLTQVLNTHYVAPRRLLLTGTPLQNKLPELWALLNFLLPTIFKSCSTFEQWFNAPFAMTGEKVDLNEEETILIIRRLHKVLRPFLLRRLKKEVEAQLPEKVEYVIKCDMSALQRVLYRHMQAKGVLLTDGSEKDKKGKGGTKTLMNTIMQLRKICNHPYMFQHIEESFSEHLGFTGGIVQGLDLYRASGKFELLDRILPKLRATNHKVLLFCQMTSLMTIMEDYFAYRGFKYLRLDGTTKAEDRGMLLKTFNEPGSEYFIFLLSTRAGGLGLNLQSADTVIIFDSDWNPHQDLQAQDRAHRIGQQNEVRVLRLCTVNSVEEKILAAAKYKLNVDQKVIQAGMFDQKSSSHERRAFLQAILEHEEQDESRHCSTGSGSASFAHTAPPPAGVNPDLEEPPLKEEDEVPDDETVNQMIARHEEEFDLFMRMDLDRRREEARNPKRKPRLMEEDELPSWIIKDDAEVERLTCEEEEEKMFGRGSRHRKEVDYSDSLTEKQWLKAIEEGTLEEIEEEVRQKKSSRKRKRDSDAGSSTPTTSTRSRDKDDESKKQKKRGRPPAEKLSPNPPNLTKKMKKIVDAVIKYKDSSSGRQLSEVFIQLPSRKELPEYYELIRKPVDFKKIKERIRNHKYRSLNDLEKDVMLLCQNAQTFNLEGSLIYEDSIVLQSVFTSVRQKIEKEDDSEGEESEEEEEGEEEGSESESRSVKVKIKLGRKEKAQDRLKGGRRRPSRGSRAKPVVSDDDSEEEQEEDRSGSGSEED
Target sequence in this assay (P40337 whole entry): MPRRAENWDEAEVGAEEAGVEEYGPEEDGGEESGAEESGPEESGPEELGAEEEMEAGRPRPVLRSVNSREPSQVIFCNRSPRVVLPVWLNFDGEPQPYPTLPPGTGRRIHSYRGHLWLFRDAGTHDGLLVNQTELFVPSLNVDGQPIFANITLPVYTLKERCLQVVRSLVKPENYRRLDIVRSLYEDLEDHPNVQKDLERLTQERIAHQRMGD

[4] = molecular target: T2, von Hippel-Lindau disease tumor suppressor/SWI/SNF-related matrix-associated actin-dependent regulator of chromatin subfamily A member 4; test: Protac activity at E3 ubiquitin ligase/BRG1 (unknown origin) assessed as E3 ubiquitin ligase mediated BRG1 degradation at 0.3 to 10 uM relative to control
Target sequence in this assay (P40337 whole entry, looked up): as the sequence (P40337 whole entry) above
Target sequence in this assay (P51532 whole entry, looked up): as the sequence (P51532 whole entry) above

| SMILES | DC50 [1] | %max [2] | DC50 [3] | %max [4] |
| --- | --- | --- | --- | --- |
| Cc1ncsc1-c1ccc([C@H](C)NC(=O)[C@@H]2C[C@@H](O)CN2C(=O)[C@@H](c2cc(N3CCC(O[C@H]4C[C@H](Oc5cc(N6C7CCC6CN(c6cc(-c8ccccc8O)nnc6N)C7)ccn5)C4)CC3)no2)C(C)C)cc1 | < 2.5 nM | > 75% | < 2.5 nM | > 75% |
| Cc1ncsc1-c1ccc([C@H](C)NC(=O)[C@@H]2C[C@@H](O)CN2C(=O)[C@@H](c2cc(OCCCCN3CCN(CCCCOc4cc(N5C6CCC5CN(c5cc(-c7ccccc7O)nnc5N)C6)ccn4)CC3)no2)C(C)C)cc1 | < 2.5 nM | > 75% | < 2.5 nM | > 75% |
| Cc1ncsc1-c1ccc([C@H](C)NC(=O)[C@@H]2C[C@@H](O)CN2C(=O)[C@@H](c2cc(OCCN3CCC(OC4CN(c5cc(N6C7CCC6CN(c6cc(-c8ccccc8O)nnc6N)C7)ccn5)C4)CC3)no2)C(C)C)cc1 | < 2.5 nM | > 75% | 2.5 to 10 nM | > 75% |
| Cc1ncsc1-c1ccc([C@H](C)NC(=O)[C@@H]2C[C@@H](O)CN2C(=O)[C@@H](c2cc(C#CCN3CCC(O[C@H]4C[C@H](Oc5cc(N6C7CCC6CN(c6cc(-c8ccccc8O)nnc6N)C7)ccn5)C4)CC3)no2)C(C)C)cc1 | < 2.5 nM | > 75% | 2.5 to 10 nM | > 75% |
| Cc1ncsc1-c1ccc([C@H](C)NC(=O)[C@@H]2C[C@@H](O)CN2C(=O)[C@@H](c2cc(OC3CN(CCN4CCC(O[C@H]5C[C@H](Oc6cc(N7C8CCC7CN(c7cc(-c9ccccc9O)nnc7N)C8)ccn6)C5)CC4)C3)no2)C(C)C)cc1 | < 2.5 nM | > 75% | 2.5 to 10 nM | > 75% |
| Cc1ncsc1-c1ccc([C@H](C)NC(=O)[C@@H]2C[C@@H](O)CN2C(=O)[C@@H](c2cc(OCCOCCOc3cc(N4C5CCC4CN(c4cc(-c6ccccc6O)nnc4N)C5)ccn3)no2)C(C)C)cc1 | < 2.5 nM | > 75% | < 2.5 nM | > 75% |
